The values that follow come from patent US9233946B2, “Sulfonamide compounds” (KANCERA AB, priority 2010, dated 2016).

pIC50: −log10 of the molar value.

The test system of one assay is PANC-1 cells. In words: Quantification of F-2,6-P2 in PANC-1 cells. It is filed as cell-based. The note with it: Homo sapiens, PANC-1; read-out: IC50 based on quantification of F-2,6-P2. The text has this: The relative kinase (formation) and phosphatase (degradation) activities of the bi-functional enzymes PFKFB3 and PFKFB4 control the intracellular levels of the regulator F-2,6-P2, which acts as an allosteric activator of glycolysis. The levels of F-2,6-P2 have been determined in three different cancer cell lines (MCF-7, PANC-1 and NUGC-3) using the van Shaftingen assay. The assay protocols described under “Methods for measurement of enzymatic activity of PFKFB3 and PFKFB4, Method A” have been adapted for the measurement of the inhibitory effect of compounds on the kinase activity of the various isoforms of the bifunctional enzyme (endogenously expressed) in the different cell lines. The modifications are described in the protocol below. All reagents were purchased from commercial sources or prepared inhouse.
Cell Line B (PANC-1, Human Pancreatic Carcinoma Cell Line)
• Cells: PANC-1 (ATCC-CRL-1469). Lot. no: 58564651. • Growth medium: Dulbecco's Modified Eagle's Medium, DMEM, ATCC-30-2002 10% FBS, Invitrogen, 10106-169
Cells were seeded at a concentration of 250 000 cells/mL in 100 μL growth medium (25 000 cells/well)
Starvation medium: DMEM/F12 without phenol red and glucose free, SVA, 991373 0.25% FBS, Invitrogen, 10106-169
Induction medium: DMEM/F12 without phenol red and glucose free, SVA, 991373 0.25% FBS, Invitrogen, 10106-169 (same as starvation medium)
Cells were seeded in 96-well Corning Costar tissue culture plates (CLS3595, Sigma-Aldrich) using the concentrations specified above for the three different cell lines A-C and incubated over night at 37° C. and 5% CO2. Row A was left empty. Next day the growth medium was discarded and replaced with 100 μL starvation medium. The plates were incubated for 18 h at 37° C. and 5% CO2. After 18 h of starvation the cells were induced with 100 μL compound or control solutions. Compounds were either tested in two concentrations (50 μM and 10 μM) or in dose response curves starting from 50 μM and the final DMSO concentration in assay plates was 0.5%. Also a dose response curve of a reference inhibitor was included in row H on each plate. All compounds were tested in duplicate plates. Compounds (in 96 well CLS 3365, Sigma-Aldrich) were serial diluted in DMSO from 10 mM compound DMSO stock solutions with Janus (automated liquid handling workstation from PerkinElmer). 5 μL were transferred to a Greiner deep well plate (736-0155, VWR) with 495 μL starvation medium. The final start concentration of compounds in the dilution plate was 100 μM, 1% DMSO. For compounds tested as single points, 10 mM compound solutions were diluted five fold in DMSO to 2 mM, followed by the transfer of 5 μL to separate dilution plates with 495 μL starvation medium. The final concentration of compounds in these dilution plates were 100 or 20 μM, respectively, and final concentration of DMSO was 1%. The plates were incubated at 37° C. and 5% CO2 for 1 h, followed by the addition of 10 μL 20 mM D-glucose in starvation medium. Controls, with and without 1 mM glucose, were included in row B. The final assay volume was 210 μL per well. After 2 h of incubation at 37° C. and 5% CO2, supernatants were discarded and the cells were lysed by the addition of 25 μL 250 mM NaOH. The plates were incubated at 37° C. and 5% CO2 for 5 min followed by an addition of 75 μL MilliQ dH2O. The supernatants were further diluted with 210 μL MilliQ dH2O to a final concentration of 20 mM NaOH. 200 μL were transferred to NUNC 96-well plates (7322661, VWR) and the plates were sealed and stored at −20° C. until analysis.
The amount of F-2,6-P2 was quantified based on the coupled enzymatic reaction described by Van Schaftingen. If necessary the samples were further diluted in 20 mM NaOH before quantification. Plates stored at −20° C. were thawed and the F-2,6-P2 quantification was initiated by transferring 40 μL from each well of the NUNC plate to the corresponding position in a trans-parent 96-well SpectraPlate-MB (6005649, PerkinElmer). […]
What is called pIC50 is the negative decadic logarithm of the IC50, by convention in mol/L. Regarding `Cc1c(S(=O)(=O)Nc2cccc(C(=O)OCCCN(C)C)c2)sc2ccc(Cl)cc12` [Example 118, 3-(Dimethylamino)propyl 3-{[(5-chloro-3-methyl-1-benzothiophen-2-yl)sulfonyl]amino}benzoate], the negative-log IC50 (pIC50) was 5.55.
Same read-out and setting: in the case of `COC(=O)c1cccc(NS(=O)(=O)c2ccc(-c3csc(C)n3)s2)c1` [Example 88, Methyl 3-({[5-(2-methyl-1,3-thiazol-4-yl)-2-thienyl]sulfonyl}amino)benzoate] it was 5.27; in that of `COC(=O)c1cccc(NS(=O)(=O)c2sc3ccc(C(C)C)cc3c2C)c1` [Example 92, Methyl 3-({[3-methyl-5-(1-methylethyl)-1-benzothiophen-2-yl]sulfonyl}amino)benzoate], 6.30; in that of `COC(=O)c1cccc(NS(=O)(=O)c2sc3ccc(Br)cc3c2C)c1` [Example 120, Methyl 3-{[(5-bromo-3-methyl-1-benzothiophen-2-yl)sulfonyl]amino}benzoate], 5.46.
Same read-out and setting: in the case of `Cc1c(S(=O)(=O)Nc2cccc(C(=O)OC(C)C)c2)sc2ccc(Cl)cc12` [Example 108, Isopropyl 3-{[(5-chloro-3-methyl-1-benzothien-2-yl)sulfonyl]amino}benzoate] it was 5.51.
Same read-out and setting: the figure for `Cc1c(S(=O)(=O)Nc2cccc(-c3nnn[nH]3)c2)sc2ccc(C(C)C)cc12` [Example 4, 5-Isopropyl-3-methyl-N-[3-(1H-tetrazol-5-yl)phenyl]benzothiophene-2-sulfonamide] is 5.12; for `CCCOC(=O)c1cccc(NS(=O)(=O)c2sc3ccc(Cl)cc3c2C)c1` [Example 112, Propyl 3-{[(5-chloro-3-methyl-1-benzothien-2-yl)sulfonyl]amino}benzoate] it is 5.37.
Take `Cc1c(S(=O)(=O)Nc2cccc(C(=O)OC3CCOC3)c2)sc2ccc(Cl)cc12` (stereo not drawn) [Example 116, Tetrahydrofuran-3-yl 3-{[(5-chloro-3-methyl-1-benzothiophen-2-yl)sulfonyl]amino}benzoate]: the pIC50 is 5.89.
The same measure, in the same setting: in the case of `COC(=O)c1cccc(NS(=O)(=O)c2sc3c(Cl)cccc3c2C)c1` [Example 122, Methyl 3-{[(7-chloro-3-methyl-1-benzothiophen-2-yl)sulfonyl]amino}benzoate] it was 5.06; in that of `COC(=O)Cn1nnc(-c2cccc(NS(=O)(=O)c3sc4ccc(C(C)C)cc4c3C)c2)n1` [Example 119, Methyl {5-[3-({[3-methyl-5-(1-methylethyl)-1-benzothiophen-2-yl]sulfonyl}amino)phenyl]-2H-tetrazol-2-yl}acetate], 5.15.
The same measure, in the same setting: in the case of `COC(=O)c1cccc(NS(=O)(=O)c2sc3c(OC)cccc3c2C)c1` [Example 121, Methyl 3-{[(7-methoxy-3-methyl-1-benzothiophen-2-yl)sulfonyl]amino}benzoate] it was 5.05.

The assay is the same for the next values; noted with them: Homo sapiens; at 12.5 μM in PANC-1 cells.
A word on the inhibition: it is the share of the control response that was lost under treatment. Read a high inhibition as a strong effect. `Cc1c(S(=O)(=O)Nc2cccc(C(=O)OCCn3cccc3)c2)sc2ccc(Cl)cc12` [Example 106, 2-(1H-Pyrrol-1-yl)ethyl 3-{[(5-chloro-3-methyl-1-benzothien-2-yl)sulfonyl]amino}benzoate] displayed an inhibition at 12.5 µM greater than 50%.
In turn, `Cc1c(S(=O)(=O)Nc2cccc(C(=O)Oc3ccccc3)c2)sc2ccc(Cl)cc12` [Example 115, Phenyl 3-{[(5-chloro-3-methyl-1-benzothiophen-2-yl)sulfonyl]amino}benzoate] displayed an inhibition at 12.5 µM greater than 50%.
On the same count and under the same terms, in the case of `CCCCCOC(=O)c1cccc(NS(=O)(=O)c2sc3ccc(Cl)cc3c2C)c1` [Example 113, Pentyl 3-{[(5-chloro-3-methyl-1-benzothiophen-2-yl)sulfonyl]amino}benzoate] it was greater than 50%; in that of `Cc1c(S(=O)(=O)Nc2cccc(C(=O)OCc3ccccc3)c2)sc2ccc(Cl)cc12` [Example 111, Benzyl 3-{[(5-chloro-3-methyl-1-benzothiophen-2-yl)sulfonyl]amino}benzoate], greater than 50%.
The same measure, in the same setting: in the case of `COC(=O)c1cccc(NS(=O)(=O)c2oc3ccc(C(C)C)cc3c2C)c1` [Example 123, Methyl 3-({[3-methyl-5-(1-methylethyl)-1-benzofuran-2-yl]sulfonyl}amino)benzoate] it was greater than 50%; in that of `Cc1c(S(=O)(=O)Nc2cccc(C(=O)OCC3CCOC3)c2)sc2ccc(Cl)cc12` (stereo not drawn) [Example 117, Tetrahydrofuran-3-ylmethyl 3-{[(5-chloro-3-methyl-1-benzothiophen-2-yl)sulfonyl]amino}benzoate], greater than 50%; in that of `COCCOC(=O)c1cccc(NS(=O)(=O)c2sc3ccc(Cl)cc3c2C)c1` [Example 109, 2-Methoxyethyl 3-{[(5-chloro-3-methyl-1-benzothiophen-2-yl)sulfonyl]amino}benzoate], greater than 50%.
The same measure, in the same setting: in the case of `CCOC(=O)c1cccc(NS(=O)(=O)c2sc3ccc(Cl)cc3c2C)c1` [Example 107, Ethyl 3-{[(5-chloro-3-methyl-1-benzothien-2-yl)sulfonyl]amino}benzoate] it was greater than 50%; in that of `CCOC(=O)c1sc(NS(=O)(=O)c2cc(-c3cc(F)ccc3F)c(Cl)s2)nc1C` [Example 127, Ethyl 2-({[5-chloro-4-(2,5-difluorophenyl)thiophen-2-yl]sulfonyl}amino)-4-methyl-1,3-thiazole-5-carboxylate], greater than 50%; in that of `CCOC(=O)c1sc(NS(=O)(=O)c2sc3ccc(Cl)cc3c2C)nc1C` [Example 126, Ethyl 2-{[(5-chloro-3-methyl-1-benzothiophen-2-yl)sulfonyl]amino}-4-methyl-1,3-thiazole-5-carboxylate], greater than 50%.
